Reference: patent publication US7871644B2, “Pharmaceutical composition for oral use with improved absorption” (Astellas Pharma Inc., priority 2000, dated 2011)

Tests used:
[1] = Number of insoluble particulate matter after adding calcium chloride to bisphosphonate solution; conditions: calcium chloride solution added, 0-60 minutes
Method: Another 2 ml distilled water were added to this liquid.
Then 2 ml of an aqueous 10 mg/ml calcium chloride.2H2O solution were added to this liquid.

[2] = Number of insoluble particulate matter after adding magnesium chloride to compound B solution; conditions: compound B solution with sodium bicarbonate, magnesium chloride solution added, 0-60 minutes, FIG. 7
Method: Another 2 ml distilled water were added to this solution and the number of insoluble particulate matter (2 μm or larger) was determined 0, 15, 30, and 60 minutes after addition using an insoluble particulate matter gauge (HIAC/ROYCO®, Pacific Scientific).
Two milliliters aqueous 10 mg/ml magnesium chloride.6H2O solution were added to this prepared liquid, and the number of insoluble particulate matter (2 μm or larger) was determined 0, 15, 30 and 60 minutes after addition by the same method as in Experiment 11.
Two milliliters aqueous 10 mg/ml magnesium chloride.6H2O were added to this prepared liquid, and the number of insoluble particulate matter (2 μm or larger) was determined 0, 15, 30 and 60 minutes after addition by the same method as in Experiment 11.

[3] = Oral administration of compound B tablets to beagles 30 minutes after feed; type: in vivo; conditions: fed beagles
[4] = Int. J. Pharm., 1993; cited from earlier work
[5] = J. Pharm. Sci, 86, 1997; cited from earlier work

With `O=P(O)(O)C(O)(Cc1cnc2ccccn12)P(=O)(O)O` [compound B] the “number of insoluble particulate matter (10 μm or larger)” value ([1]; compound B solution, FIG. 2) was “increase in the number of insoluble particulate matter”, the “number of insoluble particulate matter (2 μm or larger)” value [2] was “increase in the number of insoluble particulate matter” and the “Cmax and AUC when taken with food” value [3] was “low Cmax and AUC”.

With `CC(O)(P(=O)(O)O)P(=O)(O)O` [compound D, (1-hydroxyethylidene)-1,1-bisphosphonate] the “number of insoluble particulate matter (2 μm or larger)” value ([1]; compound D solution with sodium bicarbonate, FIG. 5) was “increase in the number of insoluble particulate matter”.

In the case of `C[C@]12CC[C@H]3[C@@H](CCC4=CC(=O)CC[C@@]43C)[C@@H]1CC[C@@H]2O` [testosterone], the “share of the barrier to absorption accounted for by the mucous layer” value [4] is listed as 78% and the “reduction of the diffusion coefficient by the mucous layer” value [5] is listed as 50%.

In the case of `O=P(O)(O)C(NC1CCCCCC1)P(=O)(O)O` [compound C, [(cycloheptylamino)-methylene]bis-phosphonate], the “number of insoluble particulate matter (10 μm or larger)” value ([1]; compound C solution with sodium bicarbonate, FIG. 4) is reported as “increase in the number of insoluble particulate matter”.
